In PubChem BioAssay (NCI):
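Assay format: 96-well plates, 48-hour exposure. The concentration for 50% growth inhibition is given as GI50. TGI: concentration producing complete growth inhibition.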

What was measured:
Assay in all cases: NCI-60 cell line screen, 48 h
SF-295 CNS = tested on: SF-295 CNS
HT29 colon = tested on: HT29 colon
OVCAR-4 ovarian = tested on: OVCAR-4 ovarian
HCT-116 colon = tested on: HCT-116 colon
OVCAR-8 ovarian = tested on: OVCAR-8 ovarian
ACHN renal = tested on: ACHN renal
HCT-15 colon = tested on: HCT-15 colon
UO-31 renal = tested on: UO-31 renal
SK-MEL-2 melanoma = tested on: SK-MEL-2 melanoma
786-0 renal = tested on: 786-0 renal

OC(c1nc2ccccc2[nH]1)C(O)C(O)C(O)c1nc2ccccc2[nH]1 (stereo not given)
TGI (SF-295 CNS): > 100 µM
TGI (HT29 colon): > 100 µM
TGI (OVCAR-4 ovarian): > 100 µM
TGI (HCT-116 colon): > 100 µM
TGI (OVCAR-8 ovarian): > 100 µM
TGI (ACHN renal): > 100 µM
TGI (HCT-15 colon): > 100 µM
TGI (UO-31 renal): > 100 µM
TGI (SK-MEL-2 melanoma): > 100 µM
TGI (786-0 renal): > 100 µM

COc1cc(NCc2ccc3oc(=O)c(-c4ccccc4)nc3c2)cc(OC)c1OC
TGI (SF-295 CNS): > 10 µM
TGI (HT29 colon): > 10 µM
TGI (OVCAR-4 ovarian): > 10 µM
TGI (HCT-116 colon): > 10 µM
TGI (OVCAR-8 ovarian): > 10 µM
TGI (ACHN renal): > 10 µM
TGI (HCT-15 colon): > 10 µM
TGI (UO-31 renal): > 10 µM
TGI (SK-MEL-2 melanoma): > 10 µM
TGI (786-0 renal): > 10 µM

Cc1cc2c(cc1Cl)SC(N(N(C)C)S(=O)(=O)c1ccc(Cl)cc1)=NS2(=O)=O
GI50 (SF-295 CNS): 30.3 µM
TGI (SF-295 CNS): > 100 µM
GI50 (HT29 colon): 27.1 µM
TGI (HT29 colon): 99.2 µM
GI50 (OVCAR-4 ovarian): 23.4 µM
TGI (OVCAR-4 ovarian): 96.4 µM
GI50 (HCT-116 colon): 23.6 µM
TGI (HCT-116 colon): 71.1 µM
GI50 (OVCAR-8 ovarian): 36.6 µM
TGI (OVCAR-8 ovarian): > 100 µM
GI50 (ACHN renal): 32.1 µM
TGI (ACHN renal): > 100 µM
GI50 (HCT-15 colon): 25.9 µM
TGI (HCT-15 colon): > 100 µM
GI50 (UO-31 renal): 28.3 µM
TGI (UO-31 renal): > 100 µM
GI50 (SK-MEL-2 melanoma): 20.1 µM
TGI (SK-MEL-2 melanoma): 66.6 µM
GI50 (786-0 renal): 34.8 µM
TGI (786-0 renal): > 100 µM

NS(=O)(=O)c1cc(Br)c(N=Nc2ccc(O)c3ncccc23)c(Br)c1
TGI (SF-295 CNS): > 100 µM
TGI (HT29 colon): > 100 µM
TGI (OVCAR-4 ovarian): > 100 µM
TGI (HCT-116 colon): > 100 µM
TGI (OVCAR-8 ovarian): > 100 µM
TGI (ACHN renal): 43.9 µM
TGI (HCT-15 colon): > 100 µM
TGI (UO-31 renal): 89.6 µM
TGI (SK-MEL-2 melanoma): > 100 µM
TGI (786-0 renal): > 100 µM

COc1cc(/C=C/c2cc(O)c(C(C)=O)c(O)c2)cc2c1O[C@]1(C)CC[C@@H](O)C(C)(C)[C@H]1C2
GI50 (SF-295 CNS): 2.92 µM
TGI (SF-295 CNS): 10.5 µM
GI50 (HT29 colon): 4.05 µM
TGI (HT29 colon): > 100 µM
GI50 (OVCAR-4 ovarian): 13.5 µM
TGI (OVCAR-4 ovarian): 74.5 µM
GI50 (HCT-116 colon): 4.56 µM
TGI (HCT-116 colon): 22 µM
GI50 (OVCAR-8 ovarian): 8.24 µM
TGI (OVCAR-8 ovarian): > 100 µM
GI50 (ACHN renal): 10.5 µM
TGI (ACHN renal): 78.3 µM
GI50 (HCT-15 colon): 4.68 µM
TGI (HCT-15 colon): 35.7 µM
GI50 (UO-31 renal): 3.22 µM
TGI (UO-31 renal): 65.5 µM
GI50 (SK-MEL-2 melanoma): 7.87 µM
TGI (SK-MEL-2 melanoma): 51.6 µM
GI50 (786-0 renal): 2.91 µM
TGI (786-0 renal): 28.9 µM

NC1(C(=O)OCc2ccccc2)CCCC1
TGI (SF-295 CNS): 34.7 µM
TGI (HT29 colon): > 100 µM
TGI (OVCAR-4 ovarian): 37.3 µM
TGI (HCT-116 colon): 41.8 µM
TGI (OVCAR-8 ovarian): 37.4 µM
TGI (ACHN renal): 34.1 µM
TGI (HCT-15 colon): 60.8 µM
TGI (UO-31 renal): 43.3 µM
TGI (SK-MEL-2 melanoma): 40.2 µM
TGI (786-0 renal): 42.8 µM

O=C(CSc1ccc(Cl)cc1)Nc1ccc(-c2nc3ccccc3s2)c(Cl)c1
GI50 (SF-295 CNS): 2 µM
TGI (SF-295 CNS): 5.42 µM
GI50 (HT29 colon): 6.86 µM
TGI (HT29 colon): > 100 µM
GI50 (OVCAR-4 ovarian): 5.95 µM
TGI (OVCAR-4 ovarian): > 100 µM
GI50 (HCT-116 colon): 2.08 µM
TGI (HCT-116 colon): 5.45 µM
GI50 (OVCAR-8 ovarian): 5.09 µM
TGI (OVCAR-8 ovarian): > 100 µM
GI50 (ACHN renal): 4.09 µM
TGI (ACHN renal): 36.9 µM
GI50 (HCT-15 colon): 3.62 µM
TGI (HCT-15 colon): > 100 µM
GI50 (UO-31 renal): 2.29 µM
TGI (UO-31 renal): 22.9 µM
GI50 (SK-MEL-2 melanoma): 3.82 µM
TGI (SK-MEL-2 melanoma): 15.7 µM
GI50 (786-0 renal): 3.94 µM
TGI (786-0 renal): 24.7 µM

COc1ccc(/C=C(/C#N)n2nnc3cccc(F)c32)cc1
GI50 (SF-295 CNS): 2.35 µM
TGI (SF-295 CNS): 17.8 µM
GI50 (HT29 colon): 0.41 µM
TGI (HT29 colon): > 100 µM
GI50 (OVCAR-4 ovarian): 2 µM
TGI (OVCAR-4 ovarian): > 100 µM
GI50 (HCT-116 colon): 0.533 µM
TGI (HCT-116 colon): 3.02 µM
GI50 (OVCAR-8 ovarian): 1.97 µM
TGI (OVCAR-8 ovarian): > 100 µM
GI50 (ACHN renal): 1.31 µM
TGI (ACHN renal): > 100 µM
GI50 (HCT-15 colon): 0.401 µM
TGI (HCT-15 colon): > 100 µM
GI50 (UO-31 renal): 1.8 µM
TGI (UO-31 renal): 6.87 µM
GI50 (SK-MEL-2 melanoma): 0.653 µM
TGI (SK-MEL-2 melanoma): 21.9 µM
GI50 (786-0 renal): 2.42 µM
TGI (786-0 renal): > 100 µM

Cc1c2c(nn1-c1ccc(S(=O)(=O)/N=C3\SCCC(=O)N3c3ccccc3)cc1)-c1ccccc1CC2
GI50 (SF-295 CNS): 75.7 µM
TGI (SF-295 CNS): > 100 µM
GI50 (HT29 colon): > 100 µM
TGI (HT29 colon): > 100 µM
GI50 (OVCAR-4 ovarian): > 100 µM
TGI (OVCAR-4 ovarian): > 100 µM
GI50 (HCT-116 colon): > 100 µM
TGI (HCT-116 colon): > 100 µM
GI50 (OVCAR-8 ovarian): 89.6 µM
TGI (OVCAR-8 ovarian): > 100 µM
GI50 (ACHN renal): > 100 µM
TGI (ACHN renal): > 100 µM
GI50 (HCT-15 colon): > 100 µM
TGI (HCT-15 colon): > 100 µM
GI50 (UO-31 renal): > 100 µM
TGI (UO-31 renal): > 100 µM
GI50 (SK-MEL-2 melanoma): > 100 µM
TGI (SK-MEL-2 melanoma): > 100 µM
GI50 (786-0 renal): 81.7 µM
TGI (786-0 renal): > 100 µM

C=C1C(=O)O[C@H]2[C@H]1CC/C(COC(=O)c1c[nH]c3ccccc13)=C\CC[C@@]1(C)O[C@@H]21
GI50 (SF-295 CNS): 1.94 µM
TGI (SF-295 CNS): 4.47 µM
GI50 (HT29 colon): 0.249 µM
TGI (HT29 colon): 0.58 µM
GI50 (OVCAR-4 ovarian): 0.258 µM
TGI (OVCAR-4 ovarian): 0.842 µM
GI50 (HCT-116 colon): 0.193 µM
TGI (HCT-116 colon): 0.459 µM
GI50 (OVCAR-8 ovarian): 0.282 µM
TGI (OVCAR-8 ovarian): 1.03 µM
GI50 (ACHN renal): 0.215 µM
TGI (ACHN renal): 0.592 µM
GI50 (HCT-15 colon): 0.258 µM
TGI (HCT-15 colon): 0.773 µM
GI50 (UO-31 renal): 0.165 µM
TGI (UO-31 renal): 0.313 µM
GI50 (SK-MEL-2 melanoma): 0.239 µM
TGI (SK-MEL-2 melanoma): 0.612 µM
GI50 (786-0 renal): 0.326 µM
TGI (786-0 renal): 1.13 µM

COc1cc(OC)cc(-c2cc(=O)c3c(OC)c(OC)c(OC)c(OC)c3o2)c1
TGI (SF-295 CNS): 69.8 µM
TGI (HT29 colon): > 100 µM
TGI (OVCAR-4 ovarian): > 100 µM
TGI (HCT-116 colon): > 100 µM
TGI (OVCAR-8 ovarian): > 100 µM
TGI (ACHN renal): > 100 µM
TGI (HCT-15 colon): > 100 µM
TGI (UO-31 renal): > 100 µM
TGI (SK-MEL-2 melanoma): 55.1 µM
TGI (786-0 renal): > 100 µM

CCc1cc(Cc2cc(CC)c(NC(=O)C(=O)Cc3ccccn3)c(CC)c2Cl)c(Cl)c(CC)c1NC(=O)C(=O)Cc1ccccn1
TGI (SF-295 CNS): > 100 µM
TGI (HT29 colon): > 100 µM
TGI (OVCAR-4 ovarian): > 100 µM
TGI (HCT-116 colon): > 100 µM
TGI (OVCAR-8 ovarian): > 100 µM
TGI (ACHN renal): > 100 µM
TGI (HCT-15 colon): > 100 µM
TGI (UO-31 renal): > 100 µM
TGI (SK-MEL-2 melanoma): > 100 µM
TGI (786-0 renal): > 100 µM

COc1cc2c3c(n(C)c(=O)c2cc1OC)-c1cc2c(cc1/C3=C\CCN)OCO2
GI50 (SF-295 CNS): < 0.0239 µM
TGI (SF-295 CNS): 8.84 µM
GI50 (HT29 colon): 0.138 µM
TGI (HT29 colon): > 34.8 µM
GI50 (OVCAR-4 ovarian): 0.792 µM
TGI (OVCAR-4 ovarian): 6.54 µM
GI50 (HCT-116 colon): < 0.024 µM
TGI (HCT-116 colon): 0.348 µM
GI50 (OVCAR-8 ovarian): 0.169 µM
TGI (OVCAR-8 ovarian): 5.65 µM
GI50 (ACHN renal): 0.0476 µM
TGI (ACHN renal): 0.585 µM
GI50 (HCT-15 colon): 0.679 µM
TGI (HCT-15 colon): 12.8 µM
GI50 (UO-31 renal): 0.337 µM
TGI (UO-31 renal): 8.9 µM
GI50 (SK-MEL-2 melanoma): 6.11 µM
TGI (SK-MEL-2 melanoma): 27 µM
GI50 (786-0 renal): 0.132 µM
TGI (786-0 renal): 6.21 µM

O=C1c2cc3c(cc2-c2c1c1ccc(F)cc1c(=O)n2CCCNCCO)OCO3
GI50 (SF-295 CNS): 0.0224 µM
TGI (SF-295 CNS): 0.114 µM
GI50 (HT29 colon): 0.0279 µM
TGI (HT29 colon): 0.152 µM
GI50 (OVCAR-4 ovarian): 0.194 µM
TGI (OVCAR-4 ovarian): 1.33 µM
GI50 (HCT-116 colon): 0.019 µM
TGI (HCT-116 colon): 0.196 µM
GI50 (OVCAR-8 ovarian): 0.0538 µM
TGI (OVCAR-8 ovarian): 0.356 µM
GI50 (ACHN renal): 0.0247 µM
TGI (ACHN renal): 0.104 µM
GI50 (HCT-15 colon): 0.0277 µM
TGI (HCT-15 colon): 0.27 µM
GI50 (UO-31 renal): 0.0292 µM
TGI (UO-31 renal): 0.148 µM
GI50 (SK-MEL-2 melanoma): 0.273 µM
TGI (SK-MEL-2 melanoma): 0.716 µM
GI50 (786-0 renal): 0.0335 µM
TGI (786-0 renal): 0.776 µM

Cc1ccc(S(=O)(=O)Nc2ccccc2C(=O)c2ccc(C)c(C)c2)cc1
TGI (SF-295 CNS): > 100 µM
TGI (HT29 colon): > 100 µM
TGI (OVCAR-4 ovarian): > 100 µM
TGI (HCT-116 colon): > 100 µM
TGI (OVCAR-8 ovarian): > 100 µM
TGI (ACHN renal): > 100 µM
TGI (HCT-15 colon): > 100 µM
TGI (UO-31 renal): > 100 µM
TGI (SK-MEL-2 melanoma): > 100 µM
TGI (786-0 renal): > 100 µM
